{"source": "patent US6596288B2", "about": "“Use of sterols as active ingredient in a cosmetic composition against adiposity” (Codif International SA, priority 2000, dated 2003)", "key": {"human adipocytes [1]": {"tested_on": "human adipocytes", "assay": "incorporation of [2-14C]-acetate into lipids (LIPOGENESIS) by isolated human adipocytes", "type": "cell-based", "details": "for % control (incorporation of acetate) / % inhibition (incorporation of acetate) / Average of cpm (incorporation of acetate) / cpm - t0 test (incorporation of acetate): 4 h", "method": "(§1) In these experiments, adipocytes were isolated from abdominal restorative surgeries sampled in women. The experiment took place the day of the sampling. Fragments of adipose tissues were incubated for 30 minutes at 37° C. in the presence of collagenase, then the isolated adipocytes were washed and taken up in medium MEM buffered with bicarbonate, in the presence of antibiotics (penicillin/streptomycin), glutamine (2 mM), and delipidated bovine serum albumin (0.5%).\nThe tests concerning the effect on lipogenesis were then conducted in the following manner.\nAdipocytes (90 μl of ¼ diluted suspension) were incubated for 1 hour, either with a control medium (4 hours), with molecules known to inhibit the neosynthesis of fatty acids (EPA), as for example […], or with previously diluted extracts (added under 100 μl).\nAs to the sterols and to the lipidic extracts of plants or algae, they were diluted in mineral oil which has been verified to not inhibit incorporation or extraction of adipocyte lipids. Then, 10 μl of [2^14C]-acetate, 50 μCi/ml, were added, and the samples were either cultivated at 37° C. in the presence of 5% CO2 for 4 additional hours, or immediately frozen at −80° C. (control t0).\nAt the times indicated, the samples were frozen at −80° C. The lipids were then extracted according to the method of Bligh and Dyer (extraction methanol/chloroform/water), then dried under nitrogen. The radioactivity incorporated was then counted by liquid scintillation."}, "human adipocytes [2]": {"tested_on": "human adipocytes", "assay": "liberation of NEFA (non-esterified fatty acids) (LIPOLYSIS) by isolated human adipocytes", "type": "cell-based", "details": "for % Control (NEFA liberation) / Average of the NEFA: 2 hours at 37° C.", "method": "as §1\nAs to the tests concerning the effect on lipolysis, they were conducted in the following manner. Adipocytes (540 μl of suspension) were incubated for 2 hours in a water bath at 37° C., with agitation, in the presence of 60 μl of different sterols. The experiments were carried out in triplicate.\nThen, the non-esterified fatty acids (AGNE) released by the adipocytes were determined in the sub-adipocyte media. The values obtained were treated by an analysis of variance (ANOVA) by means of the multiple comparison test of Dunnett. The values were considered as significant when the probability p was less than the threshold of significance 0.05."}, "[3]": {"details": "0.01 mM (10^−5 M), absence of insulin"}, "[4]": {"details": "0.01 mM (10^−5 M), presence of insulin (1 nM)"}, "[5]": {"details": "0.1 mM (10^−4 M), absence of insulin"}, "[6]": {"details": "0.1 mM (10^−4 M), presence of insulin (1 nM)"}, "[7]": {"details": "1 mM (10^−3 M), absence of insulin"}, "[8]": {"details": "1 mM (10^−3 M), presence of insulin (1 nM)"}}}
{"smiles": "CC[C@H](CC[C@@H](C)[C@H]1CC[C@H]2[C@@H]3CC=C4C[C@@H](O)CC[C@]4(C)[C@H]3CC[C@]12C)C(C)C", "note": "[Beta-sitosterol, beta-sitosterol]", "values": [{"measurement": "incorporation of acetate by isolated human adipocytes (conclusion)", "setting": "human adipocytes [1]", "result": "inhibit the incorporation of acetate"}, {"measurement": "% control (incorporation of acetate)", "setting": "human adipocytes [1]; [3]", "result": 96, "unit": "%"}, {"measurement": "% inhibition (incorporation of acetate)", "setting": "human adipocytes [1]; [3]", "result": 4, "unit": "%"}, {"measurement": "Average of cpm (incorporation of acetate)", "setting": "human adipocytes [1]; [3]", "result": 200044, "unit": "cpm"}, {"measurement": "cpm - t0 test (incorporation of acetate)", "setting": "human adipocytes [1]; [3]", "result": 193579, "unit": "cpm"}, {"measurement": "% inhibition (incorporation of acetate)", "setting": "human adipocytes [1]; 0.01 mM (10^−5 M), absence of insulin, listed as beta-sitosterol", "result": "weak and non-significant"}, {"measurement": "% control (incorporation of acetate)", "setting": "human adipocytes [1]; [4]", "result": 89, "unit": "%"}, {"measurement": "Average of cpm (incorporation of acetate)", "setting": "human adipocytes [1]; [4]", "result": 216417, "unit": "cpm"}, {"measurement": "cpm - t0 test (incorporation of acetate)", "setting": "human adipocytes [1]; [4]", "result": 209952, "unit": "cpm"}, {"measurement": "% control (incorporation of acetate)", "setting": "human adipocytes [1]; [5]", "result": 95, "unit": "%"}, {"measurement": "% inhibition (incorporation of acetate)", "setting": "human adipocytes [1]; [5]", "result": 5, "unit": "%"}, {"measurement": "Average of cpm (incorporation of acetate)", "setting": "human adipocytes [1]; [5]", "result": 198694, "unit": "cpm"}, {"measurement": "cpm - t0 test (incorporation of acetate)", "setting": "human adipocytes [1]; [5]", "result": 192229, "unit": "cpm"}, {"measurement": "% inhibition (incorporation of acetate)", "setting": "human adipocytes [1]; 0.1 mM (10^−4 M), absence of insulin, listed as beta-sitosterol", "result": "weak and non-significant"}, {"measurement": "% control (incorporation of acetate)", "setting": "human adipocytes [1]; [6]", "result": 93, "unit": "%"}, {"measurement": "Average of cpm (incorporation of acetate)", "setting": "human adipocytes [1]; [6]", "result": 224445, "unit": "cpm"}, {"measurement": "cpm - t0 test (incorporation of acetate)", "setting": "human adipocytes [1]; [6]", "result": 217980, "unit": "cpm"}, {"measurement": "% control (incorporation of acetate)", "setting": "human adipocytes [1]; [7]", "result": 84, "unit": "%"}, {"measurement": "% inhibition (incorporation of acetate)", "setting": "human adipocytes [1]; [7]", "result": 16, "unit": "%"}, {"measurement": "Average of cpm (incorporation of acetate)", "setting": "human adipocytes [1]; [7]", "result": 175711, "unit": "cpm"}, {"measurement": "cpm - t0 test (incorporation of acetate)", "setting": "human adipocytes [1]; [7]", "result": 169246, "unit": "cpm"}, {"measurement": "% control (incorporation of acetate)", "setting": "human adipocytes [1]; [8]", "result": 83, "unit": "%"}, {"measurement": "% inhibition (incorporation of acetate)", "setting": "human adipocytes [1]; [8]", "result": 17, "unit": "%"}, {"measurement": "Average of cpm (incorporation of acetate)", "setting": "human adipocytes [1]; [8]", "result": 201168, "unit": "cpm"}, {"measurement": "cpm - t0 test (incorporation of acetate)", "setting": "human adipocytes [1]; [8]", "result": 194703, "unit": "cpm"}, {"measurement": "% Control (NEFA liberation)", "setting": "human adipocytes [2]; 10^−2 M", "result": 92, "unit": "%"}, {"measurement": "Average of the NEFA", "setting": "human adipocytes [2]; 10^−2 M", "result": 131, "unit": "µM"}, {"measurement": "% Control (NEFA liberation)", "setting": "human adipocytes [2]; 10^−3 M (1 mM)", "result": 103, "unit": "%"}, {"measurement": "Average of the NEFA", "setting": "human adipocytes [2]; 10^−3 M (1 mM)", "result": 145, "unit": "µM"}, {"measurement": "% Control (NEFA liberation)", "setting": "human adipocytes [2]; 10^−4 M", "result": 96, "unit": "%"}, {"measurement": "Average of the NEFA", "setting": "human adipocytes [2]; 10^−4 M", "result": 135, "unit": "µM"}, {"measurement": "% Control (NEFA liberation)", "setting": "human adipocytes [2]; 10^−5 M", "result": 107, "unit": "%"}, {"measurement": "Average of the NEFA", "setting": "human adipocytes [2]; 10^−5 M", "result": 151, "unit": "µM"}, {"measurement": "% Control (NEFA liberation)", "setting": "human adipocytes [2]; 10^−6 M (1 μM)", "result": 110, "unit": "%"}, {"measurement": "Average of the NEFA", "setting": "human adipocytes [2]; 10^−6 M (1 μM)", "result": 156, "unit": "µM"}, {"measurement": "stimulation of lipolysis", "setting": "human adipocytes [2]; 10^−6 M, 10^−5 M, 10^−4 M, 10^−3 M and 10^−2 M", "result": "did not stimulate lipolysis"}]}
